From patent US20020010182A1, “Piperazine derivatives as tachykinin antagonists” (FUJISAWA PHARMACEUTICAL CO., LTD., priority 1995, published 2002)

Columns and labels:
h-NK1 receptors = biological target: T1, h-NK1 receptors (Homo sapiens, UniProt P25103); assay: Evaluation of NK1 antagonist transport efficiency to the central nervous system using a h-NK1 receptor binding assay; conditions: 5 min, brain extract of male SD rats 5 min after i.v. injection of test compound, CHO cell membranes expressing h-NK1, read-out: inhibition rate of 125I-BH-Substance P binding to h-NK1 receptors
T1 construct: expressed in transfected cells; host or cells: CHO cells (permanent expression), crude cell membranes
Method: A. Evaluation of NK1 Antagonist Transport Efficiency to the Cental Nervous System Using a h-NK1 Receptor Binding Assay
(1) Administration of Test Compound and Extraction of the Compound From Brain
Male SD rats were given an i.v. injection of a solution containing a test compound (1 mg/kg). 5 Min later the animals were anesthetized by ether, bled and perfused through the aorta ascendens with 20 ml of saline. The brain was rapidly removed, weighed and homogenized in 4 vol. ice-cold distilled water by using Polytoron (KINEMATICA). To extract the test compound, 500 μl of the homogenate, 100 μl of methanol, 500 μl of 0.1 N NaOH and 4 ml of ethyl acetate were mixed by shaking for 10 min at room temperature. The organic phase (2.5 ml) was recovered by centrifugation at 3,000 rpm for 10 min, dried and dissolved in dimethyl sulfoxide.
(2) h-NK1 Receptor Binding Assay
(a) Crude CHO Cell Membrane Preparation
CHO cells permanently expressing h-NK1 receptors were harvested and homogenized with a Dounce homogenizer at 4° C. in a buffer (0.25 M sucrose, 25 mM Tris-HCl (pH 7.4), 10 mM MgCl2, 1 mM EDTA, 5 μg/ml p-APMSF). The homogenate was centrifuged (500×g, 10 min), and the pellet was resuspended in the same buffer, homogenized, and centrifuged. The two supernatants were combined and centrifuged (100,000×g, 1 hour). The crude cell membranes thus isolated were resuspended in a buffer (25 MM Tris-HCl (pH 7.4), 10 mM MgCl2, 1 mM EDTA, 5 μg/ml p-APMSF) and stored at −80° C. until use.
(b) ^125I-BH-Substance P Binding to the Prepared Membrane
Cell membranes (6 μg/ml) were incubated with ^125I-BH-Substance P (0.1 nM) with or without the extracted compounds in 0.25 ml of a medium (50 mM Tris-HCl (pH 7.4), 5 mM MnCl2, 20 μg/ml chymrostatin, 40 μg/ml bacitracin, 4 μg/ml leupeptin, 5 μg/ml p-APMSF, 200 μg/ml BSA) at 22° C. for 90 min. At the end of the incubation period, the contents were quickly filtered through a Blue Mat 11740 filter (pretreated with 0.1% polyethylenimine for 3 hours prior to use) by using SKATRON Cell Harvester. The filter was then washed with a washing buffer (50 mM Tris-HCl (pH 7.4), 5 mM MnCl2) . The radioactivity was counted by using an auto gamma counter (Packard RIASTAR 5420A). All data presented are specific binding defined as that displaceable by 3 μM unlabeled Substance P.

emesis in the ferret = assay: Emesis in the ferret (copper sulfate induced); format: in vivo; conditions: i.p. dose of 3.2 and/or 10 mg/kg, 30 min before intra-gastric copper sulfate (40 mg/kg/ml); retching and vomiting observed for 30 min
Method: Individually housed adult male ferrets (Marshall Farms, 1.4 to 2.2 kg) were given an i.p. injection of a solution containing a test compound 30 Min later the emetic responses (retching and vomiting) were induced by administration of intra-gastric copper sulfate (40 mg/kg/ml) and observed for the next 30 min. The timing and number of retches and vomits observed were recorded for each animal. An individual animal was tested with at least 10 days between experiments.

T1 sequence (P25103 whole entry): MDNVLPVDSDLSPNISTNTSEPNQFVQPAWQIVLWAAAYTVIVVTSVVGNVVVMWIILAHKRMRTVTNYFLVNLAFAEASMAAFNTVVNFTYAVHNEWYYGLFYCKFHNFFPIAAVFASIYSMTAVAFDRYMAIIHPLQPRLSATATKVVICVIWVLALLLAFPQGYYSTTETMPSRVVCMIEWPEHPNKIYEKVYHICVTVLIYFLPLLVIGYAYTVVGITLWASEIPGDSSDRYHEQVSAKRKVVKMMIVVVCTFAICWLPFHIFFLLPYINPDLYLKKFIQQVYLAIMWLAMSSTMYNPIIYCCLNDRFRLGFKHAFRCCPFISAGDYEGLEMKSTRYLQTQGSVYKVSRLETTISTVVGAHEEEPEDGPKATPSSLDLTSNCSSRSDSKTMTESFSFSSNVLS

melting point	inhibition at 1 mg/kg (h-NK1 receptors) [%]	Compound	inhibition rate of emesis in the ferret (emesis in the ferret) [%]
150 to 160 °C	> 80	Cc1ccc(C[C@@H]2CN(CC#CCN3CCOCC3C)CCN2C(=O)c2cc(C(F)(F)F)cc(C(F)(F)F)c2)cc1C.Cl.Cl (stereo partly drawn) [Example 58, (2R)-1-[3,5-bis(trifluoromethyl)benzoyl]-2-(3,4-dimethylbenzyl)-4-[4-(3-methylmorpholino)-2-butynyl]piperazine dihydrochloride]	
172 °C (dec.)	> 80	CC(=O)c1ccc(CN2CCN(C(=O)c3cc(C(F)(F)F)cc(C(F)(F)F)c3)[C@H](Cc3c[nH]c4ccccc34)C2)cc1.Cl [Example 7, (2R)-4-(4-acetylbenzyl)-1-[3,5-bis(trifluoromethyl)benzoyl]-2-(1H-indol-3-ylmethyl) piperazine hydrochloride]	
236 to 242 °C	> 80	Cc1ccc(C[C@@H]2CN(C/C=C/CN3CCOCC3)CCN2C(=O)c2cc(C(F)(F)F)cc(C(F)(F)F)c2)cc1C.Cl.Cl [Example 75, (2R)-1-[3,5-bis(trifluoromethyl)benzoyl]-2-(3,4-dimethylbenzyl)-4-[(E)-4-morpholino-2-butenyl]piperazine dihydrochloride]	
235 to 238 °C	> 80	Cc1ccc(C[C@@H]2CN(CCCCCN3CCOCC3)CCN2C(=O)c2cc(C(F)(F)F)cc(C(F)(F)F)c2)cc1C.Cl.Cl [Example 74, (2R)-1-[3,5-Bis(trifluoromethyl)benzoyl]-2-(3,4-dimethylbenzyl)-4-(5-morpholinopentyl) piperazine dihydrochloride]	
150 to 165 °C	> 80	COCC1CN(CC#CCN2CCN(C(=O)c3cc(C(F)(F)F)cc(C(F)(F)F)c3)[C@H](Cc3ccc(C)c(C)c3)C2)CCO1.Cl.Cl (stereo partly drawn) [59-(1), (2R)-1-[3,5-Bis(trifluoromethyl)benzoyl]-2-(3,4-dimethylbenzyl)-4-[4-(2-methoxymethylmorpholino)-2-butynyl]piperazine dihydrochloride]	
> 230 °C	> 80	Cl.Cl.O=C(c1cc(C(F)(F)F)cc(C(F)(F)F)c1)N1CCN(C/C=C/CN2CCOCC2)C[C@H]1Cc1ccc2ccccc2c1 [62-(1), (2R)-1-[3,5-Bis(trifluoromethyl)benzoyl]-2-(2-naphthylmethyl)-4-[(E)-4-morpholino-2-butenyl]piperazine dihydrochloride]	
220 to 230 °C	> 80	Cc1ccc(C[C@@H]2CN(CCCN3CCOCC3)CCN2C(=O)c2cc(C(F)(F)F)cc(C(F)(F)F)c2)cc1C.Cl.Cl [53-(1), (2R)-1-[3,5-Bis(trifluoromethyl)benzoyl]-2-(3,4-dimethylbenzyl)-4-(3-morpholinopropyl) piperazine dihydrochloride]	
	> 80	CC(=O)c1ccc(C(=O)N2CCN(C(=O)c3cc(C(F)(F)F)cc(C(F)(F)F)c3)[C@H](Cc3ccc(Cl)c(Cl)c3)C2)cc1 [Example 12, (2R)-4-(4-acetylbenzoyl)-1-[3,5-bis (trifluoromethyl)benzoyl]-2-(3,4-dichlorobenzyl)piperazine]	100
155 to 162 °C	> 80	Cc1ccc(C[C@@H]2CN(CC#CCN3CCOCC3)CCN2C(=O)c2cc(C(F)(F)F)cc(C(F)(F)F)c2)cc1C.Cl.Cl [37-(2), (2R)-4-(4-Morpholino-2-butynyl)-1-[3,5-bis (trifluoromethyl)benzoyl]-2-(3,4-dimethylbenzyl) piperazine dihydrochloride]	
261.5 °C	> 80	Cc1ccc(C[C@@H]2CN(CCN3CCSCC3)CCN2C(=O)c2cc(C(F)(F)F)cc(C(F)(F)F)c2)cc1C.Cl.Cl [Example 37-(8), (2R)-4-(2-Thiomorpholinoethyl)-1-[3,5-bis (trifluoromethyl)benzoyl]-2-(3,4-dimethylbenzyl) piperazine dihydrochloride]	
166 to 170 °C	> 80	Cl.Cl.O=C(c1cc(C(F)(F)F)cc(C(F)(F)F)c1)N1CCN(CC#CCN2CCSCC2)C[C@H]1Cc1c[nH]c2ccccc12 [Example 37-(4), (2R)-4-(4-Thiomorpholino-2-butynyl)-1-[3,5-bis (trifluoromethyl)benzoyl]-2-(1H-indol-3-ylmethyl) piperazine dihydrochloride]	
		Cc1ccc(C[C@@H]2CN(CCN3CCOCC3)CCN2C(=O)c2cc(C(F)(F)F)cc(C(F)(F)F)c2)cc1C.Cl.Cl [37-(5), (2R)-4-(2-Morpholinoethyl)-1-[3,5-bis(trifluoromethyl)benzoyl]-2-(3,4-dimethylbenzyl)piperazine dihydrocloride]	100
243 to 246 °C	> 80	Cc1ccc(C[C@@H]2CN(C/C=C\CN3CCOCC3)CCN2C(=O)c2cc(C(F)(F)F)cc(C(F)(F)F)c2)cc1C.Cl.Cl [Example 72, (2R)-1-[3,5-Bis(trifluoromethyl)benzoyl]-2-(3,4-dimethylbenzyl)-4-[(Z)-4-morpholino-2-butenyl]piperazine dihydrochloride]	
210 °C (dec.)	> 80	CC1(C)COCCN1CC=CCN1CCN(C(=O)c2cc(C(F)(F)F)cc(C(F)(F)F)c2)[C@H](Cc2c[nH]c3ccccc23)C1.Cl.Cl [Example 86, (2R) -1-[3,5-Bis(trifluoromethyl)benzoyl]-2-(1H-indol-3-ylmethyl)-4-[4-(3,3-dimethylmorpholino)-2-butenyl]piperazine dihydrochloride]	
180 °C (dec.)	> 80	Cl.Cl.O=C(c1cc(C(F)(F)F)cc(C(F)(F)F)c1)N1CCN(CC#CCN2CCSCC2)C[C@H]1Cc1ccc(F)cc1 [84-(1), (2R)-1-[3,5-Bis(trifluoromethyl)benzoyl]-2-(4-fluorobenzyl)-4-(4-thiomorpholino-2-butynyl) piperazine dihydrochloride]	
	> 80	Cl.Cl.O=C(c1cc(C(F)(F)F)cc(C(F)(F)F)c1)N1CCN(CCCN2CCSCC2)C[C@H]1Cc1c[nH]c2ccccc12 [Example 23, (2R)-1-[3,5-bis(trifluoromethyl)benzoyl]-2-(1H-indol-3-ylmethyl)-4-(3-thiomorpholinopropyl) piperazine dihydrochloride]	100
222 °C (dec.)	> 80	COCCN(C)CCN1CCN(C(=O)c2cc(C(F)(F)F)cc(C(F)(F)F)c2)[C@H](Cc2ccc(C)c(C)c2)C1.Cl.Cl [Example 67-(13), (2R)-1-[3,5-Bis(trifluoromethyl)benzoyl]-2-(3,4-dimethylbenzyl)-4-[2-[N-(2-methoxyethyl) -N-methylamino]ethyl]piperazine dihydrochloride]	
180 to 190 °C	> 80	Cc1ccc(C[C@@H]2CN(CC#CCN3CCOCC3(C)C)CCN2C(=O)c2cc(C(F)(F)F)cc(C(F)(F)F)c2)cc1C.Cl.Cl [Example 59-(3), (2R)-1-[3,5-Bis(trifluoromethyl)benzoyl]-2-(3,4-dimethylbenzyl)-4-[4-(3,3-dimethylmorpholino)-2-butynyl]piperazine dihydrochloride]	
243 to 244 °C	> 80	Cc1ccc(C[C@@H]2CN(Cc3cnn(C)c3)CCN2C(=O)c2cc(C(F)(F)F)cc(C(F)(F)F)c2)cc1C.Cl [Example 51, (2R)-1-[3,5-bis(trifluoromethyl)benzoyl]-2-(3,4-dimethylbenzyl)-4-[(1-methyl-1H-pyrazol-4-yl)methyl]piperazine hydrochloride]	
